Key:
[1] = molecular target: T1, Amine oxidase [flavin-containing] B (Homo sapiens, UniProt P27338); conditions: 0.5 h, read-out: INH
T1 sequence (P27338 whole entry): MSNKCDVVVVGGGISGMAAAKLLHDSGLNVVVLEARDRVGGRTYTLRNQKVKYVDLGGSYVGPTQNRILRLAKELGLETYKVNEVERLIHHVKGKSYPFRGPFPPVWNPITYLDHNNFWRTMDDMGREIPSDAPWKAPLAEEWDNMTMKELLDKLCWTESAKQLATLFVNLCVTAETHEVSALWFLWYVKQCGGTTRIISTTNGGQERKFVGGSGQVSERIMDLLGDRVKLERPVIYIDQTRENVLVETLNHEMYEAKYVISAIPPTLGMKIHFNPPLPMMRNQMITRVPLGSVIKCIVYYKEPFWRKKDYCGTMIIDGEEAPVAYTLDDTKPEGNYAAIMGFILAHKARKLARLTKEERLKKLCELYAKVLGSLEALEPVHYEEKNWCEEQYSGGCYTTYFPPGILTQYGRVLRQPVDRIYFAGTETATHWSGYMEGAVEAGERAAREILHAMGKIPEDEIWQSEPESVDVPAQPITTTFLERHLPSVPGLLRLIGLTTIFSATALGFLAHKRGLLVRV
Description: Inhibition of human MAO-B at 1 uM preincubated with compound for 10 mins followed by substrate addition and measured after 30 mins relative to control

[2] = molecular target: T1, Amine oxidase [flavin-containing] B
Description: Inhibition of human MAO-B preincubated with compound for 10 mins followed by substrate addition and measured after 30 mins

[3] = molecular target: T2, Amine oxidase [flavin-containing] A (Homo sapiens, UniProt P21397)
T2 sequence (P21397 whole entry): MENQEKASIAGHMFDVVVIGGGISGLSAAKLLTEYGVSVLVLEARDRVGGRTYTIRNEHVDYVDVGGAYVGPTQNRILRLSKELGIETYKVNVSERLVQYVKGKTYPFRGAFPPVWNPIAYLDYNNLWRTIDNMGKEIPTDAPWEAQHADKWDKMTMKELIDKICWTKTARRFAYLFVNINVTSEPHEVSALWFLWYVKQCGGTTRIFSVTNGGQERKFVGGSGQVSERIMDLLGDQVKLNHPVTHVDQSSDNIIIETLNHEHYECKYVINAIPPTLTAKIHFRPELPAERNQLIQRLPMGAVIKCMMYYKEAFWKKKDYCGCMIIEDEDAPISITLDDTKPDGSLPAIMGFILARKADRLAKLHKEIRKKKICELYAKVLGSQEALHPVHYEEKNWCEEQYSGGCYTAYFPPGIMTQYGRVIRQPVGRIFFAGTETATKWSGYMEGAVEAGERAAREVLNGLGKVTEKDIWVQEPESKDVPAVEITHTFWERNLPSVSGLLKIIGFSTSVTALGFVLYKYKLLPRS
Description: Inhibition of human MAO-A preincubated with compound for 10 mins followed by substrate addition and measured after 30 mins

| SMILES | inhibition at 1 µM [1] [%] | IC50 [2] [nM] | IC50 [3] [nM] |
| --- | --- | --- | --- |
| NC(=O)Cc1nc2cc(C(=O)Nc3ccc(Cl)cc3)ccc2[nH]1 | 38.4 |  |  |
| NC(=O)Cc1nc2cc(OCc3ccccc3Cl)ccc2[nH]1 | 8.15 |  |  |
| Cc1ccccc1COc1ccc2[nH]c(CC(N)=O)nc2c1 | 5.6 |  |  |
| NC(=O)Cc1nc2cc(C(=O)Nc3ccccc3F)ccc2[nH]1 | 44 |  |  |
| Cc1ccc(NC(=O)c2ccc3[nH]c(CC(N)=O)nc3c2)cc1 | 29.6 |  |  |
| Cc1ccccc1NC(=O)c1ccc2[nH]c(CC(N)=O)nc2c1 | 31.8 |  |  |
| Cc1cccc(COc2ccc3[nH]c(CC(N)=O)nc3c2)c1 | 52.7 | 614 |  |
| NC(=O)Cc1nc2cc(C(=O)Nc3cccc(Cl)c3)ccc2[nH]1 | 47.6 |  |  |
| Cc1nc2cc(OCc3cccc(F)c3)ccc2[nH]1 | 2.8 |  |  |
| C#CCN(C)Cc1ccccc1 [PARGYLINE] | 62.9 |  |  |
| Cc1cccc(NC(=O)c2ccc3[nH]c(CC(N)=O)nc3c2)c1C | 27.2 |  |  |
| COc1ccc(NC(=O)c2ccc3[nH]c(CC(N)=O)nc3c2)cc1 | 28.5 |  |  |
| NC(=O)Cc1nc2cc(C(=O)Nc3cccc(F)c3)ccc2[nH]1 | 39.6 |  |  |
| COc1ccc2[nH]c(CC(N)=O)nc2c1 | 0.93 |  |  |
| COc1cccc(COc2ccc3[nH]c(CC(N)=O)nc3c2)c1 | 5.84 |  |  |
| Cc1cccc(NC(=O)c2ccc3[nH]c(CC(N)=O)nc3c2)c1 | 33.7 |  |  |
| Cc1ccc(NC(=O)c2ccc3[nH]c(CC(N)=O)nc3c2)cc1C | 31.3 |  |  |
| Cc1ccc(COc2ccc3[nH]c(CC(N)=O)nc3c2)cc1 | 8.29 |  |  |
| COc1ccccc1NC(=O)c1ccc2[nH]c(CC(N)=O)nc2c1 | 24.8 |  |  |
| NC(=O)Cc1nc2cc(OCc3ccccc3)ccc2[nH]1 | 14.3 |  |  |
| NC(=O)Cc1nc2cc(C(=O)Nc3ccccc3)ccc2[nH]1 | 29.9 |  |  |
| NC(=O)Cc1nc2cc(OCc3ccc(Cl)cc3)ccc2[nH]1 | 58.5 | 443 | 31300 |
| NC(=O)Cc1nc2cc(C(=O)Nc3ccc(F)cc3)ccc2[nH]1 | 44.4 |  |  |
| NC(=O)Cc1nc2cc(OCc3cccc(F)c3)ccc2[nH]1 | 67.5 | 126 | 49900 |
| NC(=O)Cc1nc2cc(OCc3cccc(Cl)c3)ccc2[nH]1 | 67.3 | 292 |  |
| NC(=O)Cc1nc2cc(OCc3ccccc3F)ccc2[nH]1 | 10.1 |  |  |
| COc1cccc(NC(=O)c2ccc3[nH]c(CC(N)=O)nc3c2)c1 | 34.6 |  |  |
| NC(=O)Cc1nc2cc(OCc3ccc(C(F)(F)F)cc3)ccc2[nH]1 | 52.2 | 161 |  |

From ChEMBL document CHEMBL5550170, “Discovery of novel benzimidazole derivatives as selective and reversible monoamine oxidase B inhibitors for Parkinson's disease treatment” (Eur J Med Chem, 2024)
